# Experimental data from patent US10729672B2 (Wyeth LLC, priority 2005, dated 2020).
# Key:
# Assay type in all cases: cell-based
# [1] = tested on: BT474 [HER-2+ (amplified); ATCC HTB-20] cells; assay: SRB cell survival / growth inhibition, BT474 cells
# Method: (§1) The combination was tested in three breast cancer cell lines of differing genotypes.
# (§2) Cells from each of these cell lines were incubated in the presence of a range of concentrations ([…]) for each drug. […] Compound dilutions were prepared in the same medium, at 2× final concentration, and 100 μl of the drug dilution was added to the cell-containing wells.
# (§3) Serial dilutions of one compound were prepared in the presence of a fixed dose of a second compound. Alternatively, a checkerboard dilution series was employed. Cells were cultured for three days in the presence of the drugs. Untreated cells were included as controls. The percentage of surviving cells was determined using sulforhodamine B (SRB, Sigma-Aldrich, St Louis, Mo.), a protein binding dye. Cellular protein was precipitated in each well by the addition of 50 μl 50% cold trichloroacetic acid. After 1 hour, the plates were washed extensively in water and dried. SRB dye reagent (0.4% SRB in 1% acetic acid, 80 μl per well) was added and plates were kept at room temperature for ten minutes. […] Cell-associated dye was dissolved in 10 mM Tris (150 μl) and the absorbance was read at 540 nm in a microtiter plate reader. The concentration of compound that caused a fixed percentage inhibition of growth was determined by plotting cell survival (relative to untreated cells) against the compound dose.
# [2] = tested on: MDA-MB-361 [HER-2+ (non-amplified); adenocarcinoma; ATCC HTB 27] cells; assay: SRB cell survival / growth inhibition, MDA-MB-361 cells; settings: MDA-MB-361, lower levels of HER-2 without amplification
# Method: as §1, §2, §3
# [3] = tested on: MCF-7 [HER-2−, EGFR−; adenocarcinoma; ATCC HTB22] cells; assay: SRB cell survival / growth inhibition, MCF-7 cells; settings: MCF-7, no HER-2
# Method: as §1, §2, §3
smiles,measurement,setting,value
"CCOc1cc2ncc(C#N)c(Nc3ccc(OCc4ccccn4)c(Cl)c3)c2cc1NC(=O)/C=C/CN(C)C [HKI-272, (E)-N-{4-[3-chloro-4-(2-pyridinylmethoxy)anilino]-3-cyano-7-ethoxy-6-quinolinyl}-4-(dimethylamino)-2-butenamide]",sensitivity of the cell line to the single agent,[1],highly sensitive
same,sensitivity of the cell line to the single agent,[2],less sensitive
same,sensitivity of the cell line to the single agent,[3],resistant
